Structures can show the parent of a compound that is named as a salt.
How the values were obtained:
Conditions in all cases: incubation time: 27 h, anaerobic, 37 °C
[1] = test system: Clostridium sporogenes DSM 1664; test: growth (OD595) fold change vs plate DMSO controls (fold change (ratio)); higher = more growth
[2] = test system: Clostridium sporogenes DSM 1664; test: fold change of Tryptamine concentration vs plate DMSO controls (fold change (ratio)); higher = more amine produced
[3] = test system: Klebsiella aerogenes DSM 30053; test: fold change of Cadaverine concentration vs plate DMSO controls (fold change (ratio)); higher = more amine produced
[4] = test system: Klebsiella aerogenes DSM 30053; test: growth (OD595) fold change vs plate DMSO controls (fold change (ratio)); higher = more growth
[5] = test system: Klebsiella aerogenes DSM 30053; test: fold change of Histamine concentration vs plate DMSO controls (fold change (ratio)); higher = more amine produced
Method: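 Dose-response follow-up: bacteria (E. coli IAI1, K. aerogenes DSM 30053, C. sporogenes DSM 1664, R. gnavus DSM 108212) were grown anaerobically in mGAM at 37 °C for 27 h with compound at 0.6125-20 µM. Amines were measured in the whole culture by targeted LC-MS/MS. Metabolite fold change and OD595 fold change are relative to plate DMSO controls; n=2 biological replicates. OD fold changes are not clipped, so slightly negative values mean no growth.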

[6] = test system: Klebsiella aerogenes DSM 30053; test: fold change of Putrescine concentration vs plate DMSO controls (fold change (ratio)); higher = more amine produced

CC(C)/N=c1\cc2n(-c3ccc(Cl)cc3)c3ccccc3nc-2cc1Nc1ccc(Cl)cc1 [Clofazimine]
growth ([1]; 0.6125 µM): 1.11
growth ([1]; 1.25 µM): 1.34
growth ([1]; 2.5 µM): 1.22
growth ([1]; 5 µM): 0.64
growth ([1]; 10 µM): 0.578
growth ([1]; 20 µM): -0.0109
fold change of Tryptamine concentration ([2]; 0.6125 µM): 0.975
fold change of Tryptamine concentration ([2]; 1.25 µM): 0.893
fold change of Tryptamine concentration ([2]; 2.5 µM): 0.681
fold change of Tryptamine concentration ([2]; 5 µM): 0.365
fold change of Tryptamine concentration ([2]; 10 µM): 0.379
fold change of Tryptamine concentration ([2]; 20 µM): 0.0193

CC(=O)OCC1=C(C(=O)O)N2C(=O)[C@@H](NC(=O)Cc3cccs3)[C@H]2SC1 [Cephalothin sodium salt]
growth ([1]; 0.6125 µM): 0.841
growth ([1]; 1.25 µM): 0.629
growth ([1]; 2.5 µM): -0.0397
growth ([1]; 5 µM): -0.0266
growth ([1]; 10 µM): -0.0343
growth ([1]; 20 µM): -0.0372
fold change of Tryptamine concentration ([2]; 0.6125 µM): 0.905
fold change of Tryptamine concentration ([2]; 1.25 µM): 0.0953
fold change of Tryptamine concentration ([2]; 2.5 µM): 0.0223
fold change of Tryptamine concentration ([2]; 5 µM): 0.0219
fold change of Tryptamine concentration ([2]; 10 µM): 0.0236
fold change of Tryptamine concentration ([2]; 20 µM): 0.0234

Cc1cc(C(C#N)c2ccc(Cl)cc2)c(Cl)cc1NC(=O)c1cc(I)cc(I)c1O (centres undefined) [Closantel]
growth ([1]; 0.6125 µM): 0.882
growth ([1]; 1.25 µM): 0.866
growth ([1]; 2.5 µM): 0.792
growth ([1]; 5 µM): 0.749
growth ([1]; 10 µM): 0.364
growth ([1]; 20 µM): -0.0258
fold change of Tryptamine concentration ([2]; 0.6125 µM): 0.999
fold change of Tryptamine concentration ([2]; 1.25 µM): 1.02
fold change of Tryptamine concentration ([2]; 2.5 µM): 0.991
fold change of Tryptamine concentration ([2]; 5 µM): 0.895
fold change of Tryptamine concentration ([2]; 10 µM): 0.367
fold change of Tryptamine concentration ([2]; 20 µM): 0.0184

CC(=O)Oc1ccccc1C(=O)Nc1ncc([N+](=O)[O-])s1 [Nitazoxanide]
growth ([1]; 0.6125 µM): 1.24
growth ([1]; 1.25 µM): 1.23
growth ([1]; 2.5 µM): 1.29
growth ([1]; 5 µM): 0.809
growth ([1]; 10 µM): -0.0196
growth ([1]; 20 µM): -0.0243
fold change of Tryptamine concentration ([2]; 0.6125 µM): 1.01
fold change of Tryptamine concentration ([2]; 1.25 µM): 0.989
fold change of Tryptamine concentration ([2]; 2.5 µM): 0.993
fold change of Tryptamine concentration ([2]; 5 µM): 0.314
fold change of Tryptamine concentration ([2]; 10 µM): 0.0174
fold change of Tryptamine concentration ([2]; 20 µM): 0.0175

CC=CC1=C(C(=O)O)N2C(=O)[C@@H](NC(=O)[C@H](N)c3ccc(O)cc3)[C@H]2SC1 [Cefprozil]
growth ([1]; 0.6125 µM): 1.1
growth ([1]; 1.25 µM): 0.85
growth ([1]; 2.5 µM): 1.02
growth ([1]; 5 µM): 0.79
growth ([1]; 10 µM): 0.573
growth ([1]; 20 µM): 0.194
fold change of Tryptamine concentration ([2]; 0.6125 µM): 1
fold change of Tryptamine concentration ([2]; 1.25 µM): 0.973
fold change of Tryptamine concentration ([2]; 2.5 µM): 1
fold change of Tryptamine concentration ([2]; 5 µM): 0.974
fold change of Tryptamine concentration ([2]; 10 µM): 0.926
fold change of Tryptamine concentration ([2]; 20 µM): 0.722

O=[N+]([O-])c1ccc(O)c2ncccc12 [Nitroxoline]
fold change of Cadaverine concentration ([3]; 0.6125 µM): 0.967
fold change of Cadaverine concentration ([3]; 1.25 µM): 0.966
fold change of Cadaverine concentration ([3]; 2.5 µM): 0.935
fold change of Cadaverine concentration ([3]; 5 µM): 0.971
fold change of Cadaverine concentration ([3]; 10 µM): 0.966
fold change of Cadaverine concentration ([3]; 20 µM): 0.977
growth ([4]; 0.6125 µM): 0.817
growth ([4]; 1.25 µM): 0.815
growth ([4]; 2.5 µM): 0.882
growth ([4]; 5 µM): 0.884
growth ([4]; 10 µM): 0.646
growth ([4]; 20 µM): 0.584
fold change of Histamine concentration ([5]; 0.6125 µM): 0.949
fold change of Histamine concentration ([5]; 1.25 µM): 0.911
fold change of Histamine concentration ([5]; 2.5 µM): 1.16
fold change of Histamine concentration ([5]; 5 µM): 0.926
fold change of Histamine concentration ([5]; 10 µM): 1.02
fold change of Histamine concentration ([5]; 20 µM): 0.852
fold change of Putrescine concentration ([6]; 0.6125 µM): 1.04
fold change of Putrescine concentration ([6]; 1.25 µM): 1.03
fold change of Putrescine concentration ([6]; 2.5 µM): 1.02
fold change of Putrescine concentration ([6]; 5 µM): 1.06
fold change of Putrescine concentration ([6]; 10 µM): 0.997
fold change of Putrescine concentration ([6]; 20 µM): 1.01

From the supplement of paper PMC12494721
